Assay results published in the supplement of paper PMC11208160.

Assay: recombinant barcode read abundance after kanamycin selection (control-corrected) (log10(CPM+1)); higher = more efficient recombination; sequences stand for … in AGTGCAGAGAAAATCGGCCAGTTTTCTCTGCCTGCAGTCCGCATGCCGT…AGATTTATGCAGCGGACTGCCTTTCTCCCAAAGTGATAAACCGGACAGTATCATGGACCGGTTTTCCCGGTAATCCGTATTTGCAAGGTTGGTTTCACT; site = the 11-nt target
Method in brief: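 Recombination efficiency draws on barcodes counted at recombinant junctions in a pooled E. coli screen of targets paired with IS621 bridge RNA target-binding loops. The counts were converted to counts per million, averaged and corrected against the chloramphenicol/ampicillin LB agar control, then reported as log10(CPM+1). Selection plates held chloramphenicol/ampicillin/kanamycin with 0.1 mM IPTG, with two replicates per condition.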
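Note: IS621 recombinase and bridge RNA in Escherichia coli cells.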

| Sequence | recombinant barcode read abundance (log10) |
| --- | --- |
| ATGGTGACTTGGGTTCTAACCTGTTGCCT (site ATGGTGGCTAG) | 0.0522 |
| ATGGTGACTTGGGTTCTAACCTGTTGCCT (site ATGGTGTCTAG) | 0.0769 |
| ATGTCCTCTTGGGTTCTAACCTGTTGCCA (site ATGTCCTCTTG) | 1.02 |
| ATGTCCTCTTGGGTTCTAACCTGTTGCCA (site GCTCGGGCTCC) | 0 |
| ATGTCTACTTGGGTTCTAACCTGTTGCAG (site ATGTCTACTCT) | 0.673 |
| ATGTCTACTTGGGTTCTAACCTGTTGCAG (site TGCCTATCTAA) | 0.219 |
| ATGTGCACTTGGGTTCTAACCTGTTGCAG (site ATGTGCACTCT) | 2.15 |
| ATGTGCACTTGGGTTCTAACCTGTTGCAG (site CTGTGCACTCG) | 0.63 |
| ATTAAATCTTGGGTTCTAACCTGTTGCCT (site ATTAAATCTAG) | 0.0334 |
| ATTAAATCTTGGGTTCTAACCTGTTGCCT (site ATTAATCCTAG) | 0.485 |
| ATTAACCCTTGGGTTCTAACCTGTTGCCT (site AATAACCCTAG) | 0.0681 |
| ATTAACCCTTGGGTTCTAACCTGTTGCCT (site ACTAACCCTAG) | 0.0136 |
| ATTAACCCTTGGGTTCTAACCTGTTGCCT (site AGTAACCCTAG) | 0.085 |
| ATTAACCCTTGGGTTCTAACCTGTTGCCT (site ATTAACCCTAG) | 1.21 |
| ATTAACTCTTGGGTTCTAACCTGTTGCCT (site ATTAACTCTAG) | 0.944 |
| ATTAACTCTTGGGTTCTAACCTGTTGCCT (site CGAGTGACTCT) | 0.0163 |
| ATTAAGACTTGGGTTCTAACCTGTTGCCT (site ATAAAGACTAG) | 0.423 |
| ATTAAGACTTGGGTTCTAACCTGTTGCCT (site ATCAAGACTAG) | 0.484 |

| Sequence | recombinant barcode read abundance (log10) |
| --- | --- |
| ATTAAGACTTGGGTTCTAACCTGTTGCCT (site ATGAAGACTAG) | 0.11 |
| ATTAAGACTTGGGTTCTAACCTGTTGCCT (site ATTAAGACTAG) | 1.35 |
| ATTCGAGCTTGGGTTCTAACCTGTTGCGC (site ATTCGAGCTGC) | 2.03 |
| ATTCGAGCTTGGGTTCTAACCTGTTGCGC (site ATTCGGGCTAC) | 0.0665 |
| ATTCGAGCTTGGGTTCTAACCTGTTGCGG (site ATTCGAGCTCC) | 1.97 |
| ATTCGAGCTTGGGTTCTAACCTGTTGCGG (site GTTCGAGCTCC) | 0.0863 |
| ATTGAGACTTGGGTTCTAACCTGTTGCTT (site ATTGAGACTAA) | 1.33 |
| ATTGAGACTTGGGTTCTAACCTGTTGCTT (site GAGAGTCCTTG) | 0.0837 |
| ATTGGGGCTTGGGTTCTAACCTGTTGCAG (site ATTAGGGCTCG) | 0.266 |
| ATTGGGGCTTGGGTTCTAACCTGTTGCAG (site ATTGGGGCTCT) | 2.38 |
| ATTTAAGCTTGGGTTCTAACCTGTTGCCT (site ATTTAAGCTAG) | 0.498 |
| ATTTAAGCTTGGGTTCTAACCTGTTGCCT (site GAGCGGCCTCT) | 0.0137 |
| ATTTCTTCTTGGGTTCTAACCTGTTGCCT (site ATATCTTCTAG) | 0.113 |
| ATTTCTTCTTGGGTTCTAACCTGTTGCCT (site ATTTCTTCTAG) | 0.0847 |
| ATTTGCACTTGGGTTCTAACCTGTTGCCT (site ATTTGAACTAG) | 0.14 |
| ATTTGCACTTGGGTTCTAACCTGTTGCCT (site ATTTGCACTAG) | 0.184 |
| ATTTGCACTTGGGTTCTAACCTGTTGCCT (site ATTTGGACTAG) | 0.0348 |
| ATTTGCACTTGGGTTCTAACCTGTTGCCT (site ATTTGTACTAG) | 0.0454 |
